# Measurements taken from US20140249041A1, “Marker of Prostate Cancer” (Region Midtjylland, priority 2009, published 2014).
# What was measured:
# SLC18A2 expression = SLC18A2 expression by real-time PCR in cell lines after epigenetic drug treatment; assay type: cell-based
# Method: RNA Preparation, cDNA Synthesis and Quantitative RT-PCR Total RNA from cultured cells and prostate tissue samples was isolated with the RNeasy MinElute Cleanup Kit (Qiagen), as described elsewhere (20). First-strand cDNA synthesis was performed with SuperScript II Reverse Transcriptase (Invitrogen) using oligo(dT) priming. SLC18A2 expression was measured with TaqMan Gene Expression Assay Hs00161858_ml and TaqMan Universal PCR Master Mix on a real-time ABI PRISM 7500 Sequence Detection System (all from Applied Biosystems). For normalization, UBC expression was measured using primers 5′-GATTTGGGTCGCGGTTCTT-3′ (SEQ ID NO: 6) plus 5′-[…]-3′ (SEQ ID NO: 7) and SYBR GREEN PCR Master Mix (Applied Biosystems). All reactions were run in triplicates.
# All cell lines were grown in RPMI 1640 with L-glutamin (Gibco, Invitrogen) supplemented with 10% fetal bovine serum, 100 U/ml penicillin and 100 μg/ml streptomycin. LNCaP, PC-3, DU145, and 22rv1 cells were obtained from ATCC, BPH-1 cells from DSMZ (Braunschweig, Germany), and PNT1A cells from ECACC. PSK-1 cells were kindly provided by Dr. Adrie van Boekhoven (University of Colorado), VCaP and DuCaP cells by Dr. Kenneth Pienta (University of Michigan), and H69 and H69A cells by Dr. Marie Stampe Ostenfeld (Danish Cancer Society, Copenhagen, Denmark). Cell lines were treated with 1 μM 5-aza-2′-deoxycytidine (Sigma) for 48 h and allowed 5 days recovery in complete medium. Four cell lines were given a combination of 1 μM 5-aza-2′-deoxycytidine (48 h treatment plus 5 days recovery) and 1 mM 4-phenylbutyric acid (Sigma) (continuously for 7 days). Mock treated cells were given buffer only. Growth media were changed daily and cells harvested on day 7. All experiments were performed in duplicate and repeated 2-3 times.
# [1] = system: SLC18A2 promoter CpG island; experiment: Bisulfite sequencing of SLC18A2 CpG island in cell lines before and after epigenetic drug treatment; assay type: cell-based; details: PSK-1 cells; 1 μM 5-aza-2′-deoxycytidine; from 69% before treatment
# Method: For bisulfite sequencing, genomic DNA from prostate cell lines and carefully selected 20-μm sections of fresh-frozen Tissue-tek-embedded BPH, adenocarcinoma and adjacent non-malignant prostate tissue samples was isolated using the PUREGENE DNA Purification Kit (Gentra Systems) with proteinase K treatment (100 units, 30 min, 37 C), as previously described (29). Laser-microdissection was performed as described in (31). DNA was bisulfite converted using the MethylEasy DNA Bisulfite Modification Kit (Human Molecular Signaling, Sydney, Australia). The SLC18A2 promoter CpG island was PCR amplified with TEMPase Hot Start DNA Polymerase (Ampliqon) using primers 5′-[…]-3′ (SEQ ID NO: 8) and 5′-[…]-3′ (SEQ ID NO: 9). Gel purified (illustra GFX PCR DNA and Gel Band Purification Kit; GE Healthcare) amplicons were subcloned into the pCR4-TOPO vector (Invitrogen) and several clones sequenced using M13 forward and reverse primers. Clinicopathological data from patients undergoing methylation analysis is compiled in FIG. 4.
# All cell lines were grown in RPMI 1640 with L-glutamin (Gibco, Invitrogen) supplemented with 10% fetal bovine serum, 100 U/ml penicillin and 100 μg/ml streptomycin. LNCaP, PC-3, DU145, and 22rv1 cells were obtained from ATCC, BPH-1 cells from DSMZ (Braunschweig, Germany), and PNT1A cells from ECACC. […]
smiles,measurement,setting,value
Nc1ncn([C@H]2C[C@H](O)[C@@H](CO)O2)c(=O)n1 [5-aza-2′-deoxycytidine],induction of SLC18A2 expression,"SLC18A2 expression; H69A cells (derived adherent line), 1 μM 5-aza-2′-deoxycytidine",not observed
same,induction of SLC18A2 expression,"SLC18A2 expression; H69 cells, 1 μM 5-aza-2′-deoxycytidine 48 h plus 5 days recovery",induced SLC18A2 expression
same,induction of SLC18A2 expression,"SLC18A2 expression; PSK-1 cells, 1 μM 5-aza-2′-deoxycytidine 48 h plus 5 days recovery",induced SLC18A2 expression
same,CpG island methylation after treatment,[1],11%
